Results as given in patent US11014911B2, “CDK2 inhibitors” (Pfizer Inc., priority 2019, dated 2021).
pKi: −log10 of the molar value.

Target: CDK2/Cyclin E1 full length (Homo sapiens (Human), UniProt P24941)
Assay: CDK2/Cyclin E1 full length mobility shift assay
Assay type: biochemical

| Compound | pKi |
| --- | --- |
| CC[C@H](C)NC(=O)O[C@@H]1CC[C@H](c2cc(NC(=O)Cc3cn(C)nc3OC)n[nH]2)C1 [Example 351, (1R,3S)-3-(3-{[(3-methoxy-1-methyl-1H-pyrazol-4-yl)acetyl]amino}-1H-pyrazol-5-yl)cyclopentyl (2S)-butan-2-ylcarbamate] | 8.56 |
| Cc1ncc(CC(=O)Nc2cc([C@H]3CC[C@@H](OC(=O)NC(C)C(C)(F)F)C3)[nH]n2)s1 (single isomer, unassigned) [Example 390] | 8.43 |
| COc1ccc(CC(=O)Nc2cc([C@@H]3CC[C@H](OC(=O)N[C@H]4CC[C@@H](O)CC4)C3)[nH]n2)cn1 [Example 553, (1S,3R)-3-(3-{[(6-methoxypyridin-3-yl)acetyl]amino}-1H-pyrazol-5-yl)cyclopentyl (cis-4-hydroxycyclohexyl)carbamate] | 9.39 |
| CNC(=O)O[C@@H]1CC[C@H](c2cc(NC(=O)Cc3ccc(OC)nc3)n[nH]2)C1 [Example 256, (1R,3S)-3-(3-{[(6-methoxypyridin-3-yl)acetyl]amino}-1H-pyrazol-5-yl)cyclopentyl methylcarbamate] | 8.59 |
| O=C(Cc1cc(F)cc(F)c1)Nc1cc([C@@H]2CC[C@H](OC(=O)NCC3CCCOC3)C2)[nH]n1 (single isomer, unassigned) [Example 516] | 8.49 |
| Cc1ccc(F)c(CC(=O)Nc2cc([C@H]3CC[C@@H](OC(=O)NC4(C)CC4)C3)[nH]n2)n1 [Example 435, (1R,3S)-3-(3-{[(3-fluoro-6-methylpyridin-2-yl)acetyl]amino}-1H-pyrazol-5-yl)cyclopentyl (1-methylcyclopropyl)carbamate] | 8.83 |
| Cc1ncc(CC(=O)Nc2cc([C@@H]3CC[C@H](OC(=O)NC(C)C)C3)[nH]n2)s1 [Example 26] | 9.68 |
| COCCn1nccc1C(=O)Nc1cc([C@H]2CC[C@@H](OC(=O)NC(C)CC(F)(F)F)C2)[nH]n1 (single isomer, unassigned) [Example 88] | 9.82 |
| CCNC(=O)O[C@@H]1CC[C@H](c2cc(NC(=O)Cc3cccc4scnc34)n[nH]2)C1 [Example 234, (1R,3S)-3-{3-[(1,3-benzothiazol-4-ylacetyl)amino]-1H-pyrazol-5-yl}cyclopentyl ethylcarbamate] | 8.39 |
| Cc1cc(CC(=O)Nc2cc([C@H]3CC[C@@H](OC(=O)N4CCC[C@H]4C)C3)[nH]n2)on1 [Example 633, (1R,3S)-3-(3-{[(3-methyl-1,2-oxazol-5-yl)acetyl]amino}-1H-pyrazol-5-yl)cyclopentyl (2R)-2-methylpyrrolidine-1-carboxylate] | 8.68 |
| CCC1(NC(=O)O[C@@H]2CC[C@H](c3cc(NC(=O)Cc4ncc(C)o4)n[nH]3)C2)CC1 [Example 448, (1R,3S)-3-(3-{[(5-methyl-1,3-oxazol-2-yl)acetyl]amino}-1H-pyrazol-5-yl)cyclopentyl (1-ethylcyclopropyl)carbamate] | 9.54 |
| COc1cnc(CC(=O)Nc2cc([C@H]3CC[C@@H](OC(=O)NCCC(F)(F)F)C3)[nH]n2)cn1 [Example 222, (1R,3S)-3-(3-{[(5-methoxypyrazin-2-yl)acetyl]amino}-1H-pyrazol-5-yl)cyclopentyl (3,3,3-trifluoropropyl)carbamate] | 8.53 |
| COC[C@H](C)NC(=O)O[C@@H]1CC[C@H](c2cc(NC(=O)Cc3ccccc3)[nH]n2)C1 [Example 517, (1R,3S)-3-{5-[(phenylacetyl)amino]-1H-pyrazol-3-yl}cyclopentyl [(2S)-1-methoxypropan-2-yl]carbamate] | 8.89 |
| CC(CC(F)(F)F)NC(=O)O[C@@H]1CC[C@H](c2cc(NC(=O)Cc3ccn(C)n3)n[nH]2)C1 (single isomer, unassigned) [Example 65] | 8.66 |
| CCC(CO)CNC(=O)O[C@@H]1CC[C@H](c2cc(NC(=O)Cc3cnc(C)o3)n[nH]2)C1 (single isomer, unassigned) [Example 527] | 8.58 |
| Cc1ccc(C(=O)Nc2cc([C@H]3CC[C@@H](OC(=O)NC(C)CC(F)(F)F)C3)[nH]n2)cn1 (single isomer, unassigned) [Example 69] | 8.37 |
| COc1nn(C)cc1CC(=O)Nc1cc([C@H]2CC[C@@H](OC(=O)NC(C)(C)C)C2)[nH]n1 [Example 309, (1R,3S)-3-(3-{[(3-methoxy-1-methyl-1H-pyrazol-4-yl)acetyl]amino}-1H-pyrazol-5-yl)cyclopentyl tert-butylcarbamate] | 8.81 |
| Cc1cnc(CC(=O)Nc2cc([C@H]3CC[C@@H](OC(=O)NCCC(F)(F)F)C3)[nH]n2)s1 [Example 221, (1R,3S)-3-(3-{[(5-methyl-1,3-thiazol-2-yl)acetyl]amino}-1H-pyrazol-5-yl)cyclopentyl (3,3,3-trifluoropropyl)carbamate] | 8.76 |
| Cc1cnc(CC(=O)Nc2cc([C@H]3CC[C@@H](OC(=O)N[C@H](C)C4CC4)C3)[nH]n2)cn1 [Example 471, (1R,3S)-3-(3-{[(5-methylpyrazin-2-yl)acetyl]amino}-1H-pyrazol-5-yl)cyclopentyl [(1R)-1-cyclopropylethyl]carbamate] | 8.84 |

| Compound | pKi |
| --- | --- |
| COc1ncccc1CC(=O)Nc1cc([C@H]2CC[C@@H](OC(=O)NC(C)(C)C)C2)[nH]n1 [Example 307, (1R,3S)-3-(3-{[(2-methoxypyridin-3-yl)acetyl]amino}-1H-pyrazol-5-yl)cyclopentyl tert-butylcarbamate] | 9.14 |
| Cc1coc(CC(=O)Nc2cc([C@H]3CC[C@@H](OC(=O)NC(C)(C)C)C3)[nH]n2)n1 [Example 296, (1R,3S)-3-(3-{[(4-methyl-1,3-oxazol-2-yl)acetyl]amino}-1H-pyrazol-5-yl)cyclopentyl tert-butylcarbamate] | 9.52 |
| CC[C@H](C)NC(=O)O[C@@H]1CC[C@H](c2cc(NC(=O)Cc3ccn(C)n3)n[nH]2)C1 [Example 328, (1R,3S)-3-(3-{[(1-methyl-1H-pyrazol-3-yl)acetyl]amino}-1H-pyrazol-5-yl)cyclopentyl (2S)-butan-2-ylcarbamate] | 8.75 |
| CC1(NC(=O)O[C@@H]2CC[C@H](c3cc(NC(=O)Cc4ccc(F)cn4)n[nH]3)C2)CC1 [Example 430, (1R,3S)-3-(3-{[(5-fluoropyridin-2-yl)acetyl]amino}-1H-pyrazol-5-yl)cyclopentyl (1-methylcyclopropyl)carbamate] | 8.94 |
| O=C(Cc1cc(F)cc(F)c1)Nc1cc([C@@H]2CC[C@H](OC(=O)NC[C@@H]3CCCO3)C2)[nH]n1 [Example 499, (1S,3R)-3-(3-{[(3,5-difluorophenyl)acetyl]amino}-1H-pyrazol-5-yl)cyclopentyl [(2S)-tetrahydrofuran-2-ylmethyl]carbamate] | 8.59 |
| CCC(O)CNC(=O)O[C@@H]1CC[C@H](c2cc(NC(=O)Cc3ccc(OC)cc3)n[nH]2)C1 (single isomer, unassigned) [Example 541] | 8.73 |
| CC[C@H](C)NC(=O)O[C@@H]1CC[C@H](c2cc(NC(=O)Cc3nnc(C)s3)n[nH]2)C1 [Example 344, (1R,3S)-3-(3-{[(5-methyl-1,3,4-thiadiazol-2-yl)acetyl]amino}-1H-pyrazol-5-yl)cyclopentyl (2S)-butan-2-ylcarbamate] | 9.24 |
| C[C@H](NC(=O)O[C@@H]1CC[C@H](c2cc(NC(=O)Cc3cnn(C)c3)n[nH]2)C1)[C@@H](C)F [Example 380, (1R,3S)-3-(3-{[(1-methyl-1H-pyrazol-4-yl)acetyl]amino}-1H-pyrazol-5-yl)cyclopentyl [(2S,3R)-3-fluorobutan-2-yl]carbamate] | 9.20 |
| Cc1cccnc1CC(=O)Nc1cc([C@H]2CC[C@@H](OC(=O)NC3(C)CC3)C2)[nH]n1 [Example 427, (1R,3S)-3-(3-{[(3-methylpyridin-2-yl)acetyl]amino}-1H-pyrazol-5-yl)cyclopentyl (1-methylcyclopropyl)carbamate] | 8.75 |
| O=C(Cc1cc(F)cc(F)c1)Nc1cc([C@@H]2CC[C@H](OC(=O)NC[C@H]3C[C@@H]3CO)C2)[nH]n1 [Example 579, (1S,3R)-3-(3-{[(3,5-difluorophenyl)acetyl]amino}-1H-pyrazol-5-yl)cyclopentyl {[(1S,2S)-2-(hydroxymethyl)cyclopropyl]-methyl}carbamate] | 8.62 |
| Cc1csc(CC(=O)Nc2cc([C@H]3CC[C@@H](OC(=O)N4CCC[C@@H]4C)C3)[nH]n2)n1 [Example 637, (1R,3S)-3-(3-{[(4-methyl-1,3-thiazol-2-yl)acetyl]amino}-1H-pyrazol-5-yl)cyclopentyl (2S)-2-methylpyrrolidine-1-carboxylate] | 8.83 |
| CC1(NC(=O)O[C@@H]2CC[C@H](c3cc(NC(=O)Cc4cc(C(F)F)ccn4)n[nH]3)C2)CC1 [Example 443, (1R,3S)-3-[3-({[4-(difluoromethyl)pyridin-2-yl]acetyl}amino)-1H-pyrazol-5-yl]cyclopentyl (1-methylcyclopropyl)carbamate] | 9.44 |
| CC[C@H](C)NC(=O)O[C@@H]1CC[C@H](c2cc(NC(=O)Cc3c(C)noc3C)n[nH]2)C1 [Example 340, (1R,3S)-3-(3-{[(3,5-dimethyl-1,2-oxazol-4-yl)acetyl]amino}-1H-pyrazol-5-yl)cyclopentyl (2S)-butan-2-ylcarbamate] | 8.65 |
| COc1cc(CC(=O)Nc2cc([C@H]3CC[C@@H](OC(=O)N4CCC4C)C3)[nH]n2)ccn1 (single isomer, unassigned) [Example 154] | 8.75 |
| Cc1c(CC(=O)Nc2cc([C@H]3CC[C@@H](OC(=O)NC(C)CC(F)(F)F)C3)[nH]n2)cnn1C (single isomer, unassigned) [Example 400] | 8.89 |
| Cc1nnc(CC(=O)Nc2cc([C@H]3CC[C@@H](OC(=O)NC(C)(C)C)C3)[nH]n2)s1 [Example 305, (1R,3S)-3-(3-{[(5-methyl-1,3,4-thiadiazol-2-yl)acetyl]amino}-1H-pyrazol-5-yl)cyclopentyl tert-butylcarbamate] | 9.28 |
| CCC(O)CNC(=O)O[C@@H]1CC[C@H](c2cc(NC(=O)Cc3cc(F)cc(F)c3)n[nH]2)C1 (single isomer, unassigned) [Example 542] | 8.62 |
| Cc1cnc(CC(=O)Nc2cc([C@H]3CC[C@@H](OC(=O)NC(C)(C)C)C3)[nH]n2)s1 [Example 303, (1R,3S)-3-(3-{[(5-methyl-1,3-thiazol-2-yl)acetyl]amino}-1H-pyrazol-5-yl)cyclopentyl tert-butylcarbamate] | 9.48 |
